In US20160297833A1, “THIENOPYRIMIDINES AS MKNK1 AND MKNK2 INHIBITORS” (BAYER PHARMA AKTIENGESELLSCHAFT, priority 2013, published 2016):

Target: T1, human full-length MKNK1 (Homo sapiens, UniProt Q9BUB5, T385D)
T1 construct: GST (N); purchased Carna Biosciences 02-145; host or cells: insect cells (baculovirus expression system)
Experiment: MKNK1 kinase high ATP assay (TR-FRET)
Assay type: biochemical
Conditions: Table 1; MKNK1 kinase high ATP assay, 2 mM ATP; read-out: MKNK1 IC50
How it was run: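 Full-length human MKNK1 (T385D) preincubated 15 min at 22 °C with compound in HEPES pH 7.5/MgCl2/DTT buffer; reaction with 2 mM ATP (final) and 0.06 μM biotinylated peptide (final), 30 min at 22 °C.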

T1 sequence (Q9BUB5 1-424 isoform Q9BUB5-2 T344D): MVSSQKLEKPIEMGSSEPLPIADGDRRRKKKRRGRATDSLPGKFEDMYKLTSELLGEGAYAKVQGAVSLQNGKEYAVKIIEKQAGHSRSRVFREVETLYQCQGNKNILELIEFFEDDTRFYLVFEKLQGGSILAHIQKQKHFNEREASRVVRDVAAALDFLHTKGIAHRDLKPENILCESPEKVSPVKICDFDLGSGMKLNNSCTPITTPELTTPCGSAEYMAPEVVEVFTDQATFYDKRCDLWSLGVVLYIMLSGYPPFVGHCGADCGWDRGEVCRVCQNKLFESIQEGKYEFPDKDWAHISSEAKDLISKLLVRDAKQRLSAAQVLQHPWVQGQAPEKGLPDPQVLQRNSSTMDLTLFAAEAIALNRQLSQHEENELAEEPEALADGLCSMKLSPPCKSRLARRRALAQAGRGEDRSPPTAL

Compound | IC50
CN(C)C1CCN(c2cc3[nH]ncc3cc2Nc2ncnc3sc4c(c23)CC[C@H](C(=O)N2C[C@@H]3C[C@H]2CO3)C4)CC1 [Example 153, [(7S)-4-({6-[4-(Dimethylamino)piperidin-1-yl]-1H-indazol-5-yl}amino)-5,6,7,8-tetrahydro[1]benzothieno[2,3-d]pyrimidin-7-yl][(1S,4S)-2-oxa-5-azabicyclo[2.2.1]hept-5-yl]methanone] | 17.5 nM
CN(C)C1CCN(c2cc3[nH]ncc3cc2Nc2ncnc3sc4c(c23)CC[C@H](C(=O)N2C[C@H]3C[C@@H]2CO3)C4)CC1 [Example 154, [(7S)-4-({6-[4-(Dimethylamino)piperidin-1-yl]-1H-indazol-5-yl}amino)-5,6,7,8-tetrahydro[1]benzothieno[2,3-d]pyrimidin-7-yl][(1R,4R)-2-oxa-5-azabicyclo[2.2.1]hept-5-yl]methanone] | 22.9 nM
CC(C)N(C)C(=O)[C@H]1CCc2c(sc3ncnc(Nc4cc5cn[nH]c5cc4N4CCC(N(C)C)CC4)c23)C1 [Example 155, (7S)-4-({6-[4-(Dimethylamino)piperidin-1-yl]-1H-indazol-5-yl}amino)-N-methyl-N-(propan-2-yl)-5,6,7,8-tetrahydro[1]benzothieno[2,3-d]pyrimidine-7-carboxamide] | 7.6 nM
CCCN(C)C(=O)[C@H]1CCc2c(sc3ncnc(Nc4cc5cn[nH]c5cc4N4CCC(N(C)C)CC4)c23)C1 [Example 156, (7S)-4-({6-[4-(Dimethylamino)piperidin-1-yl]-1H-indazol-5-yl}amino)-N-methyl-N-propyl-5,6,7,8-tetrahydro[1]benzothieno[2,3-d]pyrimidine-7-carboxamide] | 10.7 nM
CCN(CCOC)C(=O)[C@H]1CCc2c(sc3ncnc(Nc4cc5cn[nH]c5cc4N4CCC(N(C)C)CC4)c23)C1 [Example 157, (7S)-4-({6-[4-(Dimethylamino)piperidin-1-yl]-1H-indazol-5-yl}amino)-N-ethyl-N-(2-methoxyethyl)-5,6,7,8-tetrahydro[1]benzothieno[2,3-d]pyrimidine-7-carboxamide] | 21.6 nM
CCN(C)C(=O)[C@H]1CCc2c(sc3ncnc(Nc4cc5cn[nH]c5cc4N4CCC(N(C)C)CC4)c23)C1 [Example 158, (7S)-4-({6-[4-(Dimethylamino)piperidin-1-yl]-1H-indazol-5-yl}amino)-N-ethyl-N-methyl-5,6,7,8-tetrahydro[1]benzothieno[2,3-d]pyrimidine-7-carboxamide] | 10 nM
CC(C)Oc1cc2[nH]ncc2cc1Nc1ncnc2sc3c(c12)CC[C@H](C(=O)N1C[C@@H](C)O[C@@H](C)C1)C3 [Example 160, [(2R,6S)-2,6-dimethylmorpholin-4-yl][(7S)-4-{[6-(propan-2-yloxy)-1H-indazol-5-yl]amino}-5,6,7,8-tetrahydro[1]benzothieno[2,3-d]pyrimidin-7-yl]methanone] | 1.2 nM
COc1cc2[nH]ncc2cc1Nc1ncnc2sc3c(c12)CC[C@H](C(=O)N1C[C@@H](C)O[C@@H](C)C1)C3 [Example 161, [(2R,6S)-2,6-dimethylmorpholin-4-yl]{(7S)-4-[(6-methoxy-1H-indazol-5-yl)amino]-5,6,7,8-tetrahydro[1]benzothieno[2,3-d]pyrimidin-7-yl}methanone] | 1.2 nM
C[C@@H]1CN(C(=O)[C@H]2CCc3c(sc4ncnc(Nc5ccc6[nH]ncc6c5)c34)C2)C[C@H](C)O1 [Example 162, [(2R,6S)-2,6-dimethylmorpholin-4-yl][(7S)-4-(1H-indazol-5-ylamino)-5,6,7,8-tetrahydro[1]benzothieno[2,3-d]pyrimidin-7-yl]methanone] | 11.6 nM
COc1cc2[nH]ncc2cc1Nc1ncnc2sc3c(c12)CC[C@H](C(=O)N1CC(F)C1)C3 [Example 163, (3-fluoroazetidin-1-yl){(7S)-4-[(6-methoxy-1H-indazol-5-yl)amino]-5,6,7,8-tetrahydro[1]benzothieno[2,3-d]pyrimidin-7-yl}methanone] | 0.6 nM
COc1cc2[nH]ncc2cc1Nc1ncnc2sc3c(c12)CC[C@H](C(=O)N1CC(F)(F)C1)C3 [Example 164, (3,3-difluoroazetidin-1-yl){(7S)-4-[(6-methoxy-1H-indazol-5-yl)amino]-5,6,7,8-tetrahydro[1]benzothieno[2,3-d]pyrimidin-7-yl}methanone] | 0.7 nM
CN(C)C1CCN(c2cc3[nH]ncc3cc2Nc2ncnc3sc4c(c23)CC[C@H](C(=O)N2CC3(COC3)C2)C4)CC1 [Example 166, [(7S)-4-({6-[4-(dimethylamino)piperidin-1-yl]-1H-indazol-5-yl}amino)-5,6,7,8-tetrahydro[1]benzothieno[2,3-d]pyrimidin-7-yl](2-oxa-6-azaspiro[3.3]hept-6-yl)methanone] | 20.6 nM
CCOc1cc2[nH]ncc2cc1Nc1ncnc2sc3c(c12)CC[C@H](C(=O)N1C[C@@H](C)O[C@@H](C)C1)C3 [Example 167, [(2R,6S)-2,6-dimethylmorpholin-4-yl]{(7S)-4-[(6-ethoxy-1H-indazol-5-yl)amino]-5,6,7,8-tetrahydro[1]benzothieno[2,3-d]pyrimidin-7-yl}methanone] | 0.3 nM
CC(C)Oc1cc2[nH]ncc2cc1Nc1ncnc2sc3c(c12)CC[C@H](C(=O)N1CC[C@H](N(C)C)C1)C3 [Example 168, [(3S)-3-(dimethylamino)pyrrolidin-1-yl][(7S)-4-{[6-(propan-2-yloxy)-1H-indazol-5-yl]amino}-5,6,7,8-tetrahydro[1]benzothieno[2,3-d]pyrimidin-7-yl]methanone] | 0.4 nM
CC(C)Oc1cc2[nH]ncc2cc1Nc1ncnc2sc3c(c12)CC[C@H](C(=O)N1CC[C@@H](N(C)C)C1)C3 [Example 169, [(3R)-3-(Dimethylamino)pyrrolidin-1-yl][(7S)-4-{[6-(propan-2-yloxy)-1H-indazol-5-yl]amino}-5,6,7,8-tetrahydro[1]benzothieno[2,3-d]pyrimidin-7-yl]methanone] | 0.1 nM
COc1cc2[nH]ncc2cc1Nc1ncnc2sc3c(c12)CC[C@H](C(=O)N(C)CCCn1ccnc1)C3 [Example 170, (7S)—N-[3-(1H-Imidazol-1-yl)propyl]-4-[(6-methoxy-1H-indazol-5-yl)amino]-N-methyl-5,6,7,8-tetrahydro[1]benzothieno[2,3-d]pyrimidine-7-carboxamide] | 0.6 nM
CCOc1cc2[nH]ncc2cc1Nc1ncnc2sc3c(c12)CC[C@H](C(=O)N1CC(N2CCCCC2)C1)C3 [Example 175, {(7S)-4-[(6-Ethoxy-1H-indazol-5-yl)amino]-5,6,7,8-tetrahydro[1]benzothieno[2,3-d]pyrimidin-7-yl}[3-(piperidin-1-yl)azetidin-1-yl]methanone] | 0.2 nM
COc1cc2[nH]ncc2cc1Nc1ncnc2sc3c(c12)CC[C@H](C(=O)N1CC(N2CCCCC2)C1)C3 [Example 178, {(7S)-4-[(6-Methoxy-1H-indazol-5-yl)amino]-5,6,7,8-tetrahydro[1]benzothieno[2,3-d]pyrimidin-7-yl}[3-(piperidin-1-yl)azetidin-1-yl]methanone] | 0.2 nM

Second part, the compound after the results:

IC50 | Compound
1.9 nM | CCCOc1cc2[nH]ncc2cc1Nc1ncnc2sc3c(c12)CC[C@H](C(=O)N1CC(O)C1)C3 [Example 159, (3-Hydroxyazetidin-1-yl){(7S)-4-[(6-propoxy-1H-indazol-5-yl)amino]-5,6,7,8-tetrahydro[1]benzothieno[2,3-d]pyrimidin-7-yl}methanone]
0.2 nM | CN(C)C(=O)[C@H]1CCc2c(sc3ncnc(Nc4cc5cn[nH]c5cc4OCCNC(=O)OC(C)(C)C)c23)C1 [Example 165, tert-butyl {2-[(5-{[(7S)-7-(dimethylcarbamoyl)-5,6,7,8-tetrahydro[1]benzothieno[2,3-d]pyrimidin-4-yl]amino}-1H-indazol-6-yl)oxy]ethyl}carbamate]
0.4 nM | COc1cc2[nH]ncc2cc1Nc1ncnc2sc3c(c12)CC[C@H](C(=O)N(C)CCn1ccnc1)C3 [Example 171, (7S)—N-[2-(1H-Imidazol-1-yl)ethyl]-4-[(6-methoxy-1H-indazol-5-yl)amino]-N-methyl-5,6,7,8-tetrahydro[1]benzothieno[2,3-d]pyrimidine-7-carboxamide]
0.1 nM | CCOc1cc2[nH]ncc2cc1Nc1ncnc2sc3c(c12)CC[C@H](C(=O)N1CC[C@H](N(C)C)C1)C3 [Example 172, [(3S)-3-(Dimethylamino)pyrrolidin-1-yl]{(7S)-4-[(6-ethoxy-1H-indazol-5-yl)amino]-5,6,7,8-tetrahydro[1]benzothieno[2,3-d]pyrimidin-7-yl}methanone]
0.4 nM | CCOc1cc2[nH]ncc2cc1Nc1ncnc2sc3c(c12)CC[C@H](C(=O)N(C)CC(C)(C)C)C3 [Example 173, (7S)—N-(2,2-Dimethylpropyl)-4-[(6-ethoxy-1H-indazol-5-yl)amino]-N-methyl-5,6,7,8-tetrahydro[1]benzothieno[2,3-d]pyrimidine-7-carboxamide]
0.1 nM | CCCN(C)C(=O)[C@H]1CCc2c(sc3ncnc(Nc4cc5cn[nH]c5cc4OCC)c23)C1 [Example 174, (7S)-4-[(6-Ethoxy-1H-indazol-5-yl)amino]-N-methyl-N-propyl-5,6,7,8-tetrahydro[1]benzothieno[2,3-d]pyrimidine-7-carboxamide]
39.8 nM | CN(C)C(=O)[C@H]1CCc2c(sc3ncnc(Nc4cc5cn[nH]c5cc4OCC(C)(C)C)c23)C1 [Example 176, (7S)-4-{[6-(2,2-Dimethylpropoxy)-1H-indazol-5-yl]amino}-N,N-dimethyl-5,6,7,8-tetrahydro[1]benzothieno[2,3-d]pyrimidine-7-carboxamide]
2.6 nM | COc1cc2[nH]ncc2cc1Nc1ncnc2sc3c(c12)CC[C@H](C(=O)N(C)CC(C)(C)C)C3 [Example 177, (7S)—N-(2,2-Dimethylpropyl)-4-[(6-methoxy-1H-indazol-5-yl)amino]-N-methyl-5,6,7,8-tetrahydro[1]benzothieno[2,3-d]pyrimidine-7-carboxamide]
